Reference: patent US5654303A, “Alkyl amine derivatives of substituted quinoxaline 2,3-diones as glutamate receptor antagonists” (Warner-Lambert Company, priority 1995, dated 1997)
pIC50: −log10 of the molar value.

What was measured:
[1] = target: kainate site (non-NMDA receptor); test: Kainate site (non-NMDA receptor) binding (London and Coyle), Table 1 'KA'
[2] = test system: CF-1 strain mice; test: maximal electroshock (MES) assay in mice; type: in vivo; settings: IV
Excerpt: Additionally, a preliminary indicator of in vivo CNS activity related to anticonvulsant activity and potential neuroprotection, is a maximal electroshock (MES) assay in CF-1 strain mice (20-25 g) performed with corneal electrodes by conventional methods as described previously (Krall, et al., Epilepsia, 1988;19:409-428).
MES (IV) Data for Compound 1 from Table 1 [drawing 23]

[3] = target: AMPA receptors; test: AMPA receptor binding (Honore et al.), Table 1

| Structure (SMILES) | IC50 KA [1] | pIC50 [3] | also measured |
| --- | --- | --- | --- |
| CCCN(CCC)Cc1c(C)c([N+](=O)[O-])cc2[nH]c(=O)c(=O)[nH]c12 [Compound 3] | 24.93 µM | 5.79 |  |
| Cc1c([N+](=O)[O-])cc2[nH]c(=O)c(=O)[nH]c2c1CNC1CCCCC1 [Compound 5] | 5.128 µM | 5.90 |  |
| Cc1c([N+](=O)[O-])cc2[nH]c(=O)c(=O)[nH]c2c1CN(C)C1CCCCC1 [Compound 6] | 5.331 µM | 5.49 |  |
| Cc1c([N+](=O)[O-])cc2[nH]c(=O)c(=O)[nH]c2c1CN(C)C(C)C [Compound 7] | 8.23 µM | 5.94 |  |

Further lines, with some results ahead:

| IC50 KA [1] | pIC50 [3] | Structure (SMILES) | also measured |
| --- | --- | --- | --- |
| 4.483 µM | 5.82 | Cc1c([N+](=O)[O-])cc2[nH]c(=O)c(=O)[nH]c2c1CN(C)C [Compound 1] | Ataxic (%) ([2]; 3 min, 10 mg/kg): 0%; Protected (%) ([2]; 3 min, 10 mg/kg): 40%; Ataxic (%) ([2]; 3 min, 30 mg/kg): 20%; Protected (%) ([2]; 3 min, 30 mg/kg): 60%; Ataxic (%) ([2]; 30 min, 10 mg/kg): 40%; Protected (%) ([2]; 30 min, 10 mg/kg): 60%; Ataxic (%) ([2]; 30 min, 30 mg/kg): 40%; Protected (%) ([2]; 30 min, 30 mg/kg): 80% |
| 6.647 µM | 6.16 | CCN(CC)Cc1c(C)c([N+](=O)[O-])cc2[nH]c(=O)c(=O)[nH]c12 [Compound 2] |  |
| 20.50 µM | 5.33 | CCCCN(CCCC)Cc1c(C)c([N+](=O)[O-])cc2[nH]c(=O)c(=O)[nH]c12 [Compound 4] |  |
